Experimental data published in patent publication US9980943B2, “Methods of treating muscular dystrophy” (BOARD OF REGENTS OF THE NEVADA SYSTEM OF HIGHER EDUCATION, …, priority 2013, dated 2018).

Key:
Format in all cases: cell-based, mouse
[1] = system: α7 integrin (LacZ reporter in α7βgal+/− myoblasts); assay: Myoblast α7+/LacZ integrin FDG assay (Burkin assay in myoblasts, 96-well); conditions: α7+/LacZ myoblasts, 96-well
[2] = system: α7 integrin (LacZ reporter in α7+/LacZ myotubes); assay: Myotube α7 integrin FDG assay (Burkin assay in myotubes, 96-well); conditions: myotubes
[3] = system: β-galactosidase in CMV-LacZ C2C12 myotubes; assay: CMV-LacZ secondary screen in C2C12 myotubes (β-Gal stabilizing assay); conditions: for CMV-LACZ in Myotubes (β-galactosidase activity relative to DMSO): CMV-LacZ C2C12 myotubes, 96-well format; for CMV-LACZ in Myotubes, signal relative to DMSO: C2C12 CMV-LacZ myotubes, fold relative to DMSO
Method in brief: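 Dose-response runs at 0.5–40 μM (0.5, 1, 5, 10, 20, 40 μM; N=2 per point) used a clonal C2C12 line carrying CMV-LacZ. Cells were assayed as myoblasts or as differentiated myotubes, and β-galactosidase levels were read with the FDG fluorogenic substrate.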

Structure (SMILES)	Burkin Assay in Myoblasts, value relative to DMSO ([1]; 0.5 uM)	Burkin Assay in Myoblasts, value relative to DMSO ([1]; 1 uM)	Burkin Assay in Myoblasts, value relative to DMSO ([1]; 5 uM)	Burkin Assay in Myoblasts, value relative to DMSO ([1]; 10 uM)	CMV-LACZ in Myotubes, signal relative to DMSO ([3]; 5 uM)	CMV-LACZ in Myotubes, signal relative to DMSO ([3]; 10 uM)	CMV-LACZ in Myotubes, signal relative to DMSO ([3]; 20 uM)	CMV-LACZ in Myotubes, signal relative to DMSO ([3]; 40 uM)	Burkin Assay in Myoblasts, signal relative to DMSO ([1]; 0.5 uM)	Burkin Assay in Myoblasts, signal relative to DMSO ([1]; 1 uM)	Burkin Assay in Myoblasts, signal relative to DMSO ([1]; 5 uM)	Burkin Assay in Myoblasts, signal relative to DMSO ([1]; 10 uM)	Burkin Assay in Myoblasts, signal relative to DMSO ([1]; 20 uM)	Burkin Assay in Myoblasts, signal relative to DMSO ([1]; 40 uM)	Burkin Assay in Myotubes, α7 integrin LacZ reporter signal relative to DMSO ([2]; 0.5 uM)	Burkin Assay in Myotubes, α7 integrin LacZ reporter signal relative to DMSO ([2]; 1 uM)	Burkin Assay in Myotubes, α7 integrin LacZ reporter signal relative to DMSO ([2]; 5 uM)	Burkin Assay in Myotubes, α7 integrin LacZ reporter signal relative to DMSO ([2]; 10 uM)	Burkin Assay in Myotubes, α7 integrin LacZ reporter signal relative to DMSO ([2]; 20 uM)	Burkin Assay in Myotubes, α7 integrin LacZ reporter signal relative to DMSO ([2]; 40 uM)	further results
O=C(Nc1ccc(S(=O)(=O)Nc2nccs2)cc1)c1ccccc1OC(F)F [MLS002164687-01]	–	–	–	–	–	–	–	–	–	–	–	–	–	–	–	–	–	–	–	–	fold induction at 0.5 µM ([1]; Mus musculus, Myoblast, 48 h, 0.5 uM, read-out: Burkin Assay in Myoblasts, value relative to DMSO): 0.775; fold induction at 1 µM ([1]; Mus musculus, Myoblast, 48 h, 1 uM, read-out: Burkin Assay in Myoblasts, value relative to DMSO): 0.819; fold induction at 5 µM ([1]; Mus musculus, Myoblast, 48 h, 5 uM, read-out: Burkin Assay in Myoblasts, value relative to DMSO): 0.695; fold induction at 10 µM ([1]; Mus musculus, Myoblast, 48 h, 10 uM, read-out: Burkin Assay in Myoblasts, value relative to DMSO): 0.849; fold induction at 20 µM ([1]; Mus musculus, Myoblast, 48 h, 20 uM, read-out: Burkin Assay in Myoblasts, value relative to DMSO): 0.838; fold induction at 40 µM ([1]; Mus musculus, Myoblast, 48 h, 40 uM, read-out: Burkin Assay in Myoblasts, value relative to DMSO): 0.819; fold induction at 0.5 µM ([2]; Mus musculus, Myotube, 0.5 uM, read-out: Burkin Assay in Myotubes (signal relative to DMSO)): 0.853; fold induction at 1 µM ([2]; Mus musculus, Myotube, 1 uM, read-out: Burkin Assay in Myotubes (signal relative to DMSO)): 1; fold induction at 5 µM ([2]; Mus musculus, Myotube, 5 uM, read-out: Burkin Assay in Myotubes (signal relative to DMSO)): 1.23; fold induction at 10 µM ([2]; Mus musculus, Myotube, 10 uM, read-out: Burkin Assay in Myotubes (signal relative to DMSO)): 1.37; fold induction at 20 µM ([2]; Mus musculus, Myotube, 20 uM, read-out: Burkin Assay in Myotubes (signal relative to DMSO)): 1.02; fold induction at 40 µM ([2]; Mus musculus, Myotube, 40 uM, read-out: Burkin Assay in Myotubes (signal relative to DMSO)): 1.06; CMV-LACZ in Myotubes (β-galactosidase activity relative to DMSO) ([3]; 5 uM): 0.7625; CMV-LACZ in Myotubes (β-galactosidase activity relative to DMSO) ([3]; 10 uM): 0.922; CMV-LACZ in Myotubes (β-galactosidase activity relative to DMSO) ([3]; 20 uM): 0.968; CMV-LACZ in Myotubes (β-galactosidase activity relative to DMSO) ([3]; 40 uM): 1.113
CCCCNS(=O)(=O)c1ccc2nc(-c3cccnc3)cc(C(=O)NCCOC)c2c1 [MLS000673766-01]	1.02	1.061	0.928	1.0253	0.9847	0.9632	1.11	1.04	–	–	–	–	–	–	–	–	–	–	–	–	Burkin Assay in Myoblasts, value relative to DMSO ([1]; 20 uM): 0.91; Burkin Assay in Myoblasts, value relative to DMSO ([1]; 40 uM): 0.9919; Burkin Assay in Myotubes (signal relative to DMSO) ([2]; 0.5 uM): 0.968; Burkin Assay in Myotubes (signal relative to DMSO) ([2]; 1 uM): 0.9862; Burkin Assay in Myotubes (signal relative to DMSO) ([2]; 5 uM): 0.896; Burkin Assay in Myotubes (signal relative to DMSO) ([2]; 10 uM): 0.9276; Burkin Assay in Myotubes (signal relative to DMSO) ([2]; 20 uM): 0.8272; Burkin Assay in Myotubes (signal relative to DMSO) ([2]; 40 uM): 0.8717
Cn1c(=O)c2c(nc(Sc3ncnn3CC(=O)NC3CCCCC3)n2C)n(C)c1=O [MLS000663651-01]	–	–	–	–	0.9636	0.9788	0.949	0.861	1.143	1.059	0.9834	0.9551	0.9504	1.048	0.946	0.9099	1.106	1.007	1.017	0.9648	–
O=C1CCc2cc(S(=O)(=O)Nc3ccc(C(F)(F)F)cc3)cc3c2N1CC3 [MLS001237320-01]	–	–	–	–	0.9582	0.7569	0.9895	1.082	0.9733	0.9848	0.9145	0.8495	0.9287	0.8187	0.9879	1.055	1.035	0.6554	0.9912	0.9787	–
c1ccc(-c2cnc(-c3ccccc3)nc2)cc1 [MLS000532078-01]	1.091	1.076	0.944	0.9431	0.791	0.8914	0.9443	0.8623	–	–	–	–	–	–	–	–	–	–	–	–	Burkin Assay in Myoblasts, value relative to DMSO ([1]; 20 uM): 1.09; Burkin Assay in Myoblasts, value relative to DMSO ([1]; 40 uM): 1.077; Burkin Assay in Myotubes (signal relative to DMSO) ([2]; 0.5 uM): 1.0727; Burkin Assay in Myotubes (signal relative to DMSO) ([2]; 1 uM): 1.078; Burkin Assay in Myotubes (signal relative to DMSO) ([2]; 5 uM): 1.239; Burkin Assay in Myotubes (signal relative to DMSO) ([2]; 10 uM): 1.114; Burkin Assay in Myotubes (signal relative to DMSO) ([2]; 20 uM): 1.078; Burkin Assay in Myotubes (signal relative to DMSO) ([2]; 40 uM): 1.043
COc1ccc(S(=O)(=O)N2CCCCCC2)cc1C(=O)N1CCN(c2ccccc2O)CC1 [MLS001150751-01]	–	–	–	–	0.9134	0.8336	0.992	0.889	1.114	1.059	0.9941	0.9573	1.079	0.8454	1.0993	0.9504	1.254	1.023	1.0842	0.5343	–
